Laboratory results taken from patent publication US11597703B2, “Caspase inhibitors and methods of use thereof” (Histogen Inc., priority 2019, dated 2023).

Experiments:
Jurkat cells = assay: Prevention of Fas-induced apoptosis in Jurkat cells (WST-8); type: cell-based; conditions: Homo sapiens, 10 micromolar, read-out: % Prevention of Fas - induced Jurkat cell apoptosis at 10 micromolar
Procedure: Compounds of the present invention were evaluated in Jurkat cells, a human T-lymphocyte cell line, to evaluate compounds ability to inhibit apoptotic cell death. Jurkat cells, Clone E6-1 (ATCC TIB-152) were grown in culture maintain a cell density between 0.5-2 million cells/mL. Cells were tested for viability and countion with typan blue stain before use. Test compounds were addedd to 96 well plates and Jurkat cells were added at a concentration of approximately 100,000 cells per well and mixed thoroughly by action of pipetting. Plated cells were incubated for 1 hour at 37 degrees C. under an atmosphere of 5% CO2. Anti-Fas antibody was added and mixed by pipet action. Plates were incubated for 20 hours at 37 degrees C. under an atmosphere of 5% CO2. 10 microliters of thawed WST-8 solution was added to each well and incubated for 4 hours. Absorbance was measured at 450 nm and control reading at […] using a SpectraMax ID5 plate reader. Apoptotic cell death is executed by caspases 3, 7 and 6. Compounds that lack activity against these caspases will not prevent the death of Jurkat cells and is a functional test of selectivity for inflammatory over apoptotic caspases.
IC50 values to protect against Fas induced apoptosis and improve survival of Jurkat cells were determined from dose response studies.

Caspase 6 = target: T1, Caspase 6 (Homo sapiens, UniProt P55212); assay: Caspase 6 enzymatic inhibition assay, IC50; type: biochemical; conditions: read-out: Caspase 6 enzyme inhibition IC50
T1 construct: purchased Enzo Biosciences
T1 sequence (P55212 24-179 limits assumed): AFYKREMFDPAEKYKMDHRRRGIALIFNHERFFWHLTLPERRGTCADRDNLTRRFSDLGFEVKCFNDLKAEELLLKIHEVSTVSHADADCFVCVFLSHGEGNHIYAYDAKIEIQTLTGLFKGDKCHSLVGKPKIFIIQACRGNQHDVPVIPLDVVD
T1 sequence (P55212 194-293 limits assumed): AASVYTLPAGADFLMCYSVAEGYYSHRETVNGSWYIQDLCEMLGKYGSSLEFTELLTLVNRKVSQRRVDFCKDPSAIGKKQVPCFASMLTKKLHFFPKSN
Outline: (§1)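 Following manufacturer-specified conditions, enzymatic activity of purchased human caspase-3, -6 and -7 was measured with compound present to obtain IC50s.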

Caspase 7 = target: T2, Caspase 7 (Homo sapiens, UniProt P55210); assay: Caspase 7 enzymatic inhibition assay, IC50; type: biochemical; conditions: read-out: Caspase 7 enzyme inhibition IC50
T2 construct: purchased Enzo Biosciences
T2 sequence (P55210 24-198 limits assumed): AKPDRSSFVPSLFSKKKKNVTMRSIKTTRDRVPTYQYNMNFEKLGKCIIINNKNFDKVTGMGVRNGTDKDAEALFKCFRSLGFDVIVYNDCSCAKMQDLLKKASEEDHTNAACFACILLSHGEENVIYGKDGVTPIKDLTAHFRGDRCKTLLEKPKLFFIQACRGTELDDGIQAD
T2 sequence (P55210 207-303 limits assumed): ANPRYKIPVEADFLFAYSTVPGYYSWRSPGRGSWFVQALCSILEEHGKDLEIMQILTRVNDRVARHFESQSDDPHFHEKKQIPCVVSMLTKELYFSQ
Outline: as §1

Caspase-1 = target: T3, Caspase-1 (Homo sapiens, UniProt P29466); assay: Caspase-1 enzyme inhibition assay (Ac-YVAD-pNA substrate), IC50; type: biochemical
T3 construct: purchased Enzo Biosciences
T3 sequence (P29466 120-297 limits assumed): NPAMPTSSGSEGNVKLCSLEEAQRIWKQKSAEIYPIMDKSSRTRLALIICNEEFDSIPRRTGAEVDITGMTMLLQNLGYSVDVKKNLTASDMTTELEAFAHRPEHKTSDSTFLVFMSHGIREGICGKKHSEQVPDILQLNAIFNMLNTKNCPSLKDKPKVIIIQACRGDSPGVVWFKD
T3 sequence (P29466 317-404 limits assumed): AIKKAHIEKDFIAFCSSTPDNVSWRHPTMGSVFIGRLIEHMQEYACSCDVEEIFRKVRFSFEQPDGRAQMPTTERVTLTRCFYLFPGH
Outline: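 Buffer was 50 mM HEPES pH 7.4, 100 mM NaCl, 0.1% CHAPS, 1 mM EDTA, 10% glycerol and 10 mM DTT. Caspase-1 was reacted with 200 μM Ac-YVAD-pNA (final). Release of p-nitroaniline was followed continuously at 405 nm, and rates were taken from the linear slope (ε 10,500 M-1 cm-1).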

IL-1β = assay: Inhibition of LPS-stimulated IL-1β in THP-1 cells (ELISA); type: cell-based, human; conditions: Homo sapiens, 10 micromolar, read-out: Percent Inhibition of IL1-β
Procedure: Compounds in the present invention were tested in THP-1 cells, a human monocyte cell line, to assess the inhibition of the inflammatory cytokine IL-1β. THP-1 cells (ATCC TIB-202) were grown in culture and seeded in 96 well plates at a concentration of 200,000 cells per well with a total volume of 150 μL. Plated cells were incubated overnight at 37 degrees C. under an atmosphere of 5% CO2. Media was removed from cells which were washed with PBS. Test compounds were diluted in DMSO stock solution and serially diluted appropriately for initial screening and IC50 determinations. LPS in serum free media (140 μL of […]) was added to each well to stimulate IL-1β production. IL-1β was measured by ELISA assay kit (R&D Systems) per the manufacturers instructions.
IC50 values for the inhibition of IL-1 in THP 1 cells were determined from dose response studies.

Caspase-3 = target: T4, Caspase-3 (Homo sapiens, UniProt P42574); assay: Caspase-3 enzymatic inhibition assay, IC50; type: biochemical; conditions: read-out: Caspase 3 enzyme inhibition IC50
T4 construct: purchased Enzo Biosciences
T4 sequence (P42574 29-175 limits assumed): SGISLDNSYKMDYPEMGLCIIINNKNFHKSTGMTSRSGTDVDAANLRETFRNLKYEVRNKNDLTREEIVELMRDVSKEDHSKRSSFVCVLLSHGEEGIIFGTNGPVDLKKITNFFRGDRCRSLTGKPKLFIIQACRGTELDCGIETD
T4 sequence (P42574 176-277 limits assumed): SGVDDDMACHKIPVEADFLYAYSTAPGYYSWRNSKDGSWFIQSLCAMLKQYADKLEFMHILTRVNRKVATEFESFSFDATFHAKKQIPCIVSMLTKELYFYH
Outline: as §1

| IC50 (Caspase 6) | IC50 (Caspase 7) | IC50 (Caspase-1) | IC50 (Caspase-3) | Compound | inhibition at 10 µM (Jurkat cells) | inhibition at 10 µM (IL-1β) |
| --- | --- | --- | --- | --- | --- | --- |
| ≥ 1000 nM | ≥ 1000 nM | ≤ 10 nM | ≥ 1000 nM | C[C@H](NC(=O)C(=O)Nc1ccc(F)cc1)C(=O)N[C@@H](CCC(=O)O)C(=O)COc1c(F)c(F)cc(F)c1F [Example 17, (S)-4-((S)-2-(2-((4-fluorophenyl)amino)-2-oxoacetamido)propanamido)-5-oxo-6-(2,3,5,6-tetrafluorophenoxy)hexanoic acid] | ≤ 10% | > 90% |
| ≥ 1000 nM | ≥ 1000 nM | ≤ 10 nM | ≥ 1000 nM | C[C@H](NC(=O)C(=O)Nc1cccc(F)c1)C(=O)N[C@@H](CCC(=O)O)C(=O)COc1c(F)c(F)cc(F)c1F [Example 18, (S)-4-((S)-2-(2-((3fluorophenyl)amino)-2-oxoacetamido)propanamido)-5-oxo-6-(2,3,5,6-tetrafluorophenoxy)hexanoic acid] | ≤ 10% | > 90% |
| ≥ 1000 nM | ≥ 1000 nM | ≤ 10 nM | ≥ 1000 nM | Cc1ccc(NC(=O)C(=O)N[C@@H](C)C(=O)N[C@@H](CCC(=O)O)C(=O)COc2c(F)c(F)cc(F)c2F)cc1 [Example 19, (S)-4-((S)-2-(2-((4-methylphenyl)amino)-2-oxoacetamido)propanamido)-5-oxo-6-(2,3,5,6-tetrafluorophenoxy)hexanoic acid] | ≤ 10% | > 90% |
| ≥ 1000 nM | ≥ 1000 nM | ≤ 10 nM | ≥ 1000 nM | Cc1cccc(NC(=O)C(=O)N[C@@H](C)C(=O)N[C@@H](CCC(=O)O)C(=O)COc2c(F)c(F)cc(F)c2F)c1 [Example 20, (S)-4-((S)-2-(2-((3-methylphenyl)amino)-2-oxoacetamido)propanamido)-5-oxo-6-(2,3,5,6-tetrafluorophenoxy)hexanoic acid] | ≤ 10% | > 90% |
